pIC50: −log10 of the molar value. Where a name gives a salt, the structure may show the parent alone.
Legend:
[1] = molecular target: T1, angiotensin-converting enzyme (Oryctolagus cuniculus, UniProt P12822); assay: in vitro inhibition of the angiotensin-converting enzyme (hippuryl-histidyl-leucine substrate); format: biochemical, rabbit; settings: in vitro test; enzyme from lungs of adult male rabbits; 37° C., 30 minutes
T1 construct: angiotensin-converting enzyme preparation (from lungs of adult male rabbits); from tissue; host or cells: lungs of adult male rabbits
T1 sequence (P12822 34-1310): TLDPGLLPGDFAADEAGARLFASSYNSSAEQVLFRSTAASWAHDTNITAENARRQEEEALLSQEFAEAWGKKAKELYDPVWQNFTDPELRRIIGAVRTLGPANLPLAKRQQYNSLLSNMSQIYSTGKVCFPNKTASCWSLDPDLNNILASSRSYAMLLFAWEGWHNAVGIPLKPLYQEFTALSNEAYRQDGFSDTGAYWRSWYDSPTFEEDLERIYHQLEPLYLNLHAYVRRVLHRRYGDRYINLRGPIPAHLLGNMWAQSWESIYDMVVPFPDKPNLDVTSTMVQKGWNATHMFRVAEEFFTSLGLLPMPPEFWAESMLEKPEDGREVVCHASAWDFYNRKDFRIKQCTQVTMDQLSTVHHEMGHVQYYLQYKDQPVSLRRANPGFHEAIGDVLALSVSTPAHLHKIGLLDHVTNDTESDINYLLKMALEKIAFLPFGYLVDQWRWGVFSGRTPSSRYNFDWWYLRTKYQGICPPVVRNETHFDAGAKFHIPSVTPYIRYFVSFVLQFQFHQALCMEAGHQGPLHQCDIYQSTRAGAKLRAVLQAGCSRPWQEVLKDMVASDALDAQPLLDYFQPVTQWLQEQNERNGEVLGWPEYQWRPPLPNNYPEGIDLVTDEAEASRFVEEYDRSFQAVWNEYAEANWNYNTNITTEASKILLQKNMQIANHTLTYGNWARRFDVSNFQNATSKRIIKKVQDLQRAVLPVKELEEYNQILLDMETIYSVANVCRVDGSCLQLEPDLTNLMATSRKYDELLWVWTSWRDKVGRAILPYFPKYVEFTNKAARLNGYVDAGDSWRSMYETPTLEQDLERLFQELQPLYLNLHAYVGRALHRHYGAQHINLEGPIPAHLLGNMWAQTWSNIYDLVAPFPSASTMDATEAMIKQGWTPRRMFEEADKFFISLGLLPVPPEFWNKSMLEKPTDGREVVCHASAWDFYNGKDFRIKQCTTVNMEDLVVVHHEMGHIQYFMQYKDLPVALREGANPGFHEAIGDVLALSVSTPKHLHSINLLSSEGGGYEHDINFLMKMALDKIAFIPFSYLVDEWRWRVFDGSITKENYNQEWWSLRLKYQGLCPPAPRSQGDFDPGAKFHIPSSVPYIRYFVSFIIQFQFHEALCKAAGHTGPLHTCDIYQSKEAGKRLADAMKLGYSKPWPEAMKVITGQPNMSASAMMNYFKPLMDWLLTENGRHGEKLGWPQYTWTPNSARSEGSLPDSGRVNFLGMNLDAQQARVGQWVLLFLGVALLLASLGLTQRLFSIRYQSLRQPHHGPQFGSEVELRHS
Method: Biophys. Acta 293, 451 (1973). According to this method, said compounds are dissolved at about 1 mM concentration in phosphate buffer. […] Said solutions are incubated at 37° C. for 30 minutes and combined with 0.75 ml of 0.6N aqueous sodium hydroxide to stop further reaction. Then 100 microliters of a 0.2% solution of o-phthalaldehyde in methanol are added at room temperature, and 10 minutes later 100 microliters of 6N hydrochloric acid. These samples are read against water in a spectrophotometer set at 360 nm, and the optical densities thereof estimated. They are corrected for the standard curve via a conversion factor expressing nanomoles of histidyl-leucine formed during said 30 minute incubation period. The results are plotted against concentration to determine the IC50, i.e., the concentration of the compound which gives half the activity of the control sample. Illustrative of the invention, and according to the test methods previously described, the following angiotensin-converting enzyme inhibition data is obtained.

[2] = test system: angiotensin-converting enzyme; assay: in vivo inhibition of the Angiotensin I induced pressor response in anesthetized normotensive rats; settings: p.o. administration of 3.3 mg/kg (rat), at 1 hr
Method: Angiotensin I is hydrolyzed by the action of said converting enzyme to the potent pressor substance Angiotensin II. The inhibition of said enzyme prevents the generation of Angiotensin II from I and, therefore, attenuates any pressor response following an Angiotensin I challenge.
The corresponding in vivo test is performed with male, normotensive rats, which are anesthetized with sodium 5-ethyl-5-(1-methylpropyl)-2-thiobarbiturate. A femoral artery and saphenous vein are cannulated respectively for direct blood pressure measurement and the i.v. administration of Angiotensin I and a compound of this invention. After the basal blood pressure is stabilized, pressor responses to 3 challenges of 333 ng/kg angiotensin I i.v., at 5 minute intervals, are obtained. Such pressure resonses are usually again obtained at 5, 10, 15, 30 and 60 minutes after i.v. administration or 1, 2, 3 and 4 hours after p.o. administration of the compound to be tested, and compared with the initial responses. Any observed decrease of said pressor response caused by the compounds of the invention is an indication of Angiotensin I converting enzyme inhibition.
Illustrative of the invention, and according to the test methods previously described, the following angiotensin-converting enzyme inhibition data is obtained.

pIC50 [1]	SMILES	inhibition of Angiotensin I pressor response (in vivo test) [2]
7.57	NCCCC[C@H](N[C@H]1CCCc2ccccc2N(CC(=O)O)C1=O)C(=O)O [S,S compound of example 12, 3-[(5-amino-1-(S)-carboxypentyl)amino]-1-carboxymethyl-3,4,5,6-tetrahydro-(3S)-1-benzazocin-2-1H-one hydrochloride]	–
8.12	O=C(O)CN1C(=O)[C@@H](N[C@@H](CCc2ccccc2)C(=O)O)CCCc2ccccc21 [example 7a, 1-carboxymethyl-3-(1-carboxy-3-phenyl-(1S)-propylamino)-3,4,5,6-tetrahydro-(3S)-1-benzazocin-2-1H-one hydrochloride]	–
–	CCOC(=O)[C@H](CCc1ccccc1)N[C@H]1CCCc2ccccc2N(CC(=O)O)C1=O [example 8a, 1-carboxymethyl-3-(1-ethoxycarbonyl-3-phenyl-(1S)-propylamino-3,4,5,6-tetrahydro-(3S)-1-benzazocin-2-1H-one hydrochloride]	69%

— patent publication US4537885A, “Certain benzazocinone and benzazoninone derivatives” (Ciba Geigy Corporation, priority 1984, dated 1985)
